Test results as given in patent US6573246B1, “Modified ether glyceroglycolipids” (The Liposome Company, Inc., priority 1995, dated 2003).
pIC50: −log10 of the molar value. Read-outs that look alike come from different tables or passages of the source.

How the values were obtained:
Assay type in all cases: cell-based, human
[1] = system: A549 cells (non-small cell lung adenocarcinoma); experiment: growth inhibition of A549 cells in culture; conditions: for pIC50 / proliferation: increase in cell numbers relative to control wells (control = 100): 72 h; for pIC50: read-out: Gl50 (concentration that inhibited cell growth by 50% in comparison to control cultures)
Method: (§1) Human epithelial cancer cell lines were grown from frozen stocks originally obtained from the ATCC, in media commonly used for growing these cells in culture. For example, A549 cells (non-small cell lung adenocarcinoma) were cultured in Ham's F-12 medium, T84 cells (colon carcinoma) were cultured in a 1:1 mixture of F-12 and DMEM while MCF-7 (breast adenocarcinoma) and A427 (large cell lung carcinoma) cells were cultured in DMEM. The media were supplemented with 10% fetal bovine serum, penicillin (50 U/ml), streptomycin (50 micogram/ml) and fungizone (0.5 microgram/ml). OVCAR-3 cells (ovarian adenocarcinoma) were cultured in RPMI 1640 medium supplemented with 20% FBS and 10 microgram/ml insulin.
(§2) Cells were subcultured into 24-well plates and the cell number was monitored daily. When the cells were in log phase, the media was replaced with one containing the required drug concentration, and the cells were incubated for 72 h. The increase in cell numbers relative to control wells (without any drug) was determined after the incubation. Stock solutions of the drugs ([…]) were prepared in ethanol and stored at −20 deg. C. Etherlipid solutions (30 micromolar) in the appropriate media were prepared fresh on the day of the experiment and serially diluted to give the required concentrations. The final concentration of ethanol in all wells was 0.1% (v/v).
(§3) Gl50 values are given as the mean ± standard deviation; the Gl50 value from each experiment “n” was generated from three individual wells on two separate plates (six total wells); n=1 for compounds 3-6; n=2 for most cell lines treated with compound 2 ^an=3; ^bn=2; ^cn=6; ^dn=8.

[2] = system: A427 (large cell lung carcinoma) cells; experiment: growth inhibition of A427 cells in culture; conditions: for pIC50 / proliferation: increase in cell numbers relative to control wells (control = 100): 72 h; for pIC50: read-out: Gl50 (concentration that inhibited cell growth by 50% in comparison to control cultures)
Method: as §1, §2

[3] = system: OVCAR-3 cells (ovarian adenocarcinoma); experiment: growth inhibition of OVCAR-3 cells in culture; conditions: for growth: increase in cell numbers relative to control wells (control = 100): OVCAR-3, 72 h; for pIC50: OVCAR-3 ovarian cancer cell line, read-out: Gl50 (the source's name)
Method: as §1, §2

[4] = system: T84 cells (colon carcinoma); experiment: growth inhibition of T84 cells in culture; conditions: for pIC50 / proliferation: increase in cell numbers relative to control wells (control = 100): 72 h; for pIC50: read-out: Gl50 (concentration that inhibited cell growth by 50% in comparison to control cultures)
Method: as §1, §2

[5] = system: MCF-7 (breast adenocarcinoma) cells; experiment: growth inhibition of MCF-7 cells in culture; conditions: MCF-7; for pIC50 / proliferation: increase in cell numbers relative to control wells (control = 100): 72 h; for pIC50: read-out: Gl50 (concentration that inhibited cell growth by 50% in comparison to control cultures)
Method: as §1, §2, §3

CCCCCCCCCCCCCCCCOC[C@H](CO[C@@H]1O[C@H](CO)[C@@H](O)[C@H](O)[C@H]1N)OC [A, 1-O-hexadecyl-2-O-methyl-3-O-(2′-amino-2′-deoxy-β-D-glucopyranosyl)-sn-glycerol]
concentration cytotoxic to the cells ([1]; 10% FBS-supplemented medium): 10.5 µM | pIC50 ([1]; 10% FBS-supplemented medium): 5.08 | proliferation: increase in cell numbers relative to control wells (control = 100) ([1]; lipid concentration 5 μM): 82.28 ± 4.66 | proliferation: increase in cell numbers relative to control wells (control = 100) ([1]; lipid concentration 6.5 μM): 67.39 ± 6.18 | proliferation: increase in cell numbers relative to control wells (control = 100) ([1]; lipid concentration 8.0 μM): 45.17 ± 12.06 | proliferation: increase in cell numbers relative to control wells (control = 100) ([1]; lipid concentration 10 μM): 0 | proliferation: increase in cell numbers relative to control wells (control = 100) ([1]; lipid concentration 12.5 μM): 0 | proliferation: increase in cell numbers relative to control wells (control = 100) ([1]; lipid concentration 15 μM): 0 | proliferation: increase in cell numbers relative to control wells (control = 100) ([1]; lipid concentration 20 μM): 0 | concentration cytotoxic to the cells ([2]; 10% FBS-supplemented medium): 10.5 µM | pIC50 ([2]; 10% FBS-supplemented medium): 5.15 | proliferation: increase in cell numbers relative to control wells (control = 100) ([2]; lipid concentration 5 μM): 68.98 ± 9.25 | proliferation: increase in cell numbers relative to control wells (control = 100) ([2]; lipid concentration 6.5 μM): 49.74 ± 5.16 | proliferation: increase in cell numbers relative to control wells (control = 100) ([2]; lipid concentration 8.0 μM): 4.29 ± 5.16 | proliferation: increase in cell numbers relative to control wells (control = 100) ([2]; lipid concentration 10 μM): 0 | proliferation: increase in cell numbers relative to control wells (control = 100) ([2]; lipid concentration 12.5 μM): 0 | proliferation: increase in cell numbers relative to control wells (control = 100) ([2]; lipid concentration 15 μM): 0 | proliferation: increase in cell numbers relative to control wells (control = 100) ([2]; lipid concentration 20 μM): 0 | growth: increase in cell numbers relative to control wells (control = 100) ([3]; lipid concentration 5 μM): 42.9 ± 13.4 | growth: increase in cell numbers relative to control wells (control = 100) ([3]; lipid concentration 10 μM): 7.7 ± 2.3 | growth: increase in cell numbers relative to control wells (control = 100) ([3]; lipid concentration 15 μM): 0 | pIC50 [3]: 4.92 | concentration cytotoxic to the cells ([4]; 10% FBS-supplemented medium): 20 µM | pIC50 ([4]; 10% FBS-supplemented medium): 4.91 | proliferation: increase in cell numbers relative to control wells (control = 100) ([4]; lipid concentration 5 μM): 89.71 ± 12.72 | proliferation: increase in cell numbers relative to control wells (control = 100) ([4]; lipid concentration 7.5 μM): 75.16 ± 10.79 | proliferation: increase in cell numbers relative to control wells (control = 100) ([4]; lipid concentration 10 μM): 64.89 ± 11.56 | proliferation: increase in cell numbers relative to control wells (control = 100) ([4]; lipid concentration 12.5 μM): 39.59 ± 9.50 | proliferation: increase in cell numbers relative to control wells (control = 100) ([4]; lipid concentration 15 μM): 15.06 ± 7.23 | proliferation: increase in cell numbers relative to control wells (control = 100) ([4]; lipid concentration 20 μM): 0 | concentration cytotoxic to the cells ([5]; 10% FBS-supplemented medium): 16 µM | pIC50 ([5]; 10% FBS-supplemented medium): 5.19 | proliferation: increase in cell numbers relative to control wells (control = 100) ([5]; lipid concentration 5 μM): 60.60 ± 7.14 | proliferation: increase in cell numbers relative to control wells (control = 100) ([5]; lipid concentration 6.5 μM): 44.05 ± 11.70 | proliferation: increase in cell numbers relative to control wells (control = 100) ([5]; lipid concentration 8.0 μM): 31.46 ± 5.56 | proliferation: increase in cell numbers relative to control wells (control = 100) ([5]; lipid concentration 10 μM): 14.42 ± 8.39 | proliferation: increase in cell numbers relative to control wells (control = 100) ([5]; lipid concentration 12.5 μM): 3.90 ± 5.75 | proliferation: increase in cell numbers relative to control wells (control = 100) ([5]; lipid concentration 15 μM): 0 | proliferation: increase in cell numbers relative to control wells (control = 100) ([5]; lipid concentration 20 μM): 0

CCCCCCCCCCCCCCCCOC[C@H](CO[C@@H]1O[C@H](CO)[C@@H](O)[C@H](O)[C@H]1NC(C)=O)OC [B, 1-O-hexadecyl-2-O-methyl-3-O-(2′-acetamido-2′-deoxy-β-D-glucopyranosyl)-sn-glycerol]
pIC50 ([1]; 10% FBS-supplemented medium): 5.05 | proliferation: increase in cell numbers relative to control wells (control = 100) ([1]; lipid concentration 5 μM): 91 ± 9 | proliferation: increase in cell numbers relative to control wells (control = 100) ([1]; lipid concentration 10 μM): 45 ± 3 | proliferation: increase in cell numbers relative to control wells (control = 100) ([1]; lipid concentration 15 μM): 15 ± 2 | proliferation: increase in cell numbers relative to control wells (control = 100) ([1]; lipid concentration 20 μM): 0 | proliferation: increase in cell numbers relative to control wells (control = 100) ([1]; lipid concentration 30 μM): 0 | pIC50 ([2]; 10% FBS-supplemented medium): 4.61 | proliferation: increase in cell numbers relative to control wells (control = 100) ([2]; lipid concentration 5 μM): 93 ± 12 | proliferation: increase in cell numbers relative to control wells (control = 100) ([2]; lipid concentration 10 μM): 92 ± 6 | proliferation: increase in cell numbers relative to control wells (control = 100) ([2]; lipid concentration 15 μM): 86 ± 10 | proliferation: increase in cell numbers relative to control wells (control = 100) ([2]; lipid concentration 20 μM): 71 ± 8 | proliferation: increase in cell numbers relative to control wells (control = 100) ([2]; lipid concentration 30 μM): 24 ± 4 | growth: increase in cell numbers relative to control wells (control = 100) ([3]; lipid concentration 5 μM): 68.8 ± 5.8 | growth: increase in cell numbers relative to control wells (control = 100) ([3]; lipid concentration 10 μM): 52.9 ± 3.9 | growth: increase in cell numbers relative to control wells (control = 100) ([3]; lipid concentration 15 μM): 34.6 ± 7.3 | growth: increase in cell numbers relative to control wells (control = 100) ([3]; lipid concentration 20 μM): 26.0 ± 10.9 | growth: increase in cell numbers relative to control wells (control = 100) ([3]; lipid concentration 30 μM): 4.7 ± 4.8 | pIC50 [3]: 5.40 | pIC50 ([4]; 10% FBS-supplemented medium): < 4.52 | proliferation: increase in cell numbers relative to control wells (control = 100) ([4]; lipid concentration 5 μM): 96 ± 10 | proliferation: increase in cell numbers relative to control wells (control = 100) ([4]; lipid concentration 10 μM): 79 ± 12 | proliferation: increase in cell numbers relative to control wells (control = 100) ([4]; lipid concentration 15 μM): 77 ± 13 | proliferation: increase in cell numbers relative to control wells (control = 100) ([4]; lipid concentration 20 μM): 79 ± 16 | proliferation: increase in cell numbers relative to control wells (control = 100) ([4]; lipid concentration 30 μM): 61 ± 13 | pIC50 ([5]; 10% FBS-supplemented medium): 4.77 | proliferation: increase in cell numbers relative to control wells (control = 100) ([5]; lipid concentration 5 μM): 81 ± 8 | proliferation: increase in cell numbers relative to control wells (control = 100) ([5]; lipid concentration 10 μM): 71 ± 6 | proliferation: increase in cell numbers relative to control wells (control = 100) ([5]; lipid concentration 15 μM): 58 ± 5 | proliferation: increase in cell numbers relative to control wells (control = 100) ([5]; lipid concentration 20 μM): 38 ± 2 | proliferation: increase in cell numbers relative to control wells (control = 100) ([5]; lipid concentration 30 μM): 6 ± 3

CCCCCCCCCCCCCCCCOP(=O)([O-])OCC[N+](C)(C)C [D, hexadecylphosphocholine]
pIC50 ([3]; Homo sapiens): < 4.52 | growth: increase in cell numbers relative to control wells (control = 100) ([3]; lipid concentration 5 μM): 93.8 ± 16.5 | growth: increase in cell numbers relative to control wells (control = 100) ([3]; lipid concentration 10 μM): 90.3 ± 11.3 | growth: increase in cell numbers relative to control wells (control = 100) ([3]; lipid concentration 15 μM): 67.4 ± 14.5 | growth: increase in cell numbers relative to control wells (control = 100) ([3]; lipid concentration 20 μM): 62.3 ± 10.7 | growth: increase in cell numbers relative to control wells (control = 100) ([3]; lipid concentration 30 μM): 67.2 ± 12.5

CCCCCCCC/C=C\CCCCCCCCCCCCOP(=O)([O-])OCC[N+](C)(C)C [E, erucylphosphocholine]
pIC50 ([3]; Homo sapiens): < 4.52 | growth: increase in cell numbers relative to control wells (control = 100) ([3]; lipid concentration 5 μM): 104.0 ± 12.2 | growth: increase in cell numbers relative to control wells (control = 100) ([3]; lipid concentration 10 μM): 102.3 ± 16.1 | growth: increase in cell numbers relative to control wells (control = 100) ([3]; lipid concentration 15 μM): 98.6 ± 7.8 | growth: increase in cell numbers relative to control wells (control = 100) ([3]; lipid concentration 20 μM): 90.2 ± 6.6 | growth: increase in cell numbers relative to control wells (control = 100) ([3]; lipid concentration 30 μM): 60 ± 10.7
